# Where two headings read alike, the source gives them in different places.
# Tests used:
# [1] = system: seven ovarian cancer cell lines (IGROV1, OVCAR-3, OVCAR-4, OVCAR-5, OVCAR-8, NCI/ADR-RES and SK-OV-3); test: in vitro anticancer activity, ovarian panel; format: cell-based; settings: Homo sapiens, exposure at least 48 h, read-out: GI50, range over panel
# [2] = system: HS578T; test: SRB 48 h growth assay, Breast HS578T; format: cell-based, human; settings: for GI50 / CC50: Homo sapiens, Hs-578T; for CC50: read-out: Log10 LC50 (converted)
# [3] = system: 786-0; test: SRB 48 h growth assay, Renal 786-0; format: cell-based, human; settings: 786-0, Renal
# [4] = system: OVCAR-3; test: SRB 48 h growth assay, Ovarian OVCAR-3; format: cell-based, human; settings: OVCAR-3, Ovarian
# [5] = system: UACC-257; test: SRB 48 h growth assay, Melanoma UACC-257; format: cell-based, human; settings: UACC-257, Melanoma
# [6] = system: MDA-MB-435; test: SRB 48 h growth assay, Melanoma MDA-MB-435; format: cell-based, human; settings: MDA-MB-435, Melanoma
# [7] = system: MDA-MB-468; test: SRB 48 h growth assay, Breast MDA-MB-468; format: cell-based, human; settings: MDA-MB-468, Breast; for GI50 / CC50: Homo sapiens; for CC50: read-out: Log10 LC50 (converted)
# [8] = system: NCI-H23; test: SRB 48 h growth assay, Non-small Cell Lung NCI-H23; format: cell-based, human
# [9] = system: six breast cancer cell line (MCF-7, MDA-MB-231/ATCC, HS 578T, TD-47D, MDA-MB-468 and BT-549); test: in vitro anticancer activity, breast panel; format: cell-based; settings: Homo sapiens; six breast cancer cell lines, exposure at least 48 h; read-out: GI50, range over panel
# [10] = system: HCT-116; test: SRB 48 h growth assay, Colon HCT-116; format: cell-based, human; settings: HCT-116, Colon
# [11] = system: two prostate cancer cell line (PC-3, DU-145); test: in vitro anticancer activity, prostate panel; format: cell-based; settings: Homo sapiens; two prostate cancer cell lines, exposure at least 48 h; read-out: GI50, range over panel
# [12] = system: PC-3; test: SRB 48 h growth assay, Prostate PC-3; format: cell-based, human; settings: PC-3, Prostate; for GI50 / CC50: Homo sapiens; for CC50: read-out: Log10 LC50 (converted)
# [13] = system: BT-549; test: SRB 48 h growth assay, Breast BT-549; format: cell-based, human; settings: BT-549, Breast; for GI50 / CC50: Homo sapiens; for CC50: read-out: Log10 LC50 (converted)
# [14] = system: LOX IMVI; test: SRB 48 h growth assay, Melanoma LOX IMVI; format: cell-based, human
# [15] = system: M14; test: SRB 48 h growth assay, Melanoma M14; format: cell-based, human
# [16] = system: SNB-19; test: SRB 48 h growth assay, CNS SNB-19; format: cell-based, human; settings: SNB-19, CNS; for GI50 / CC50: Homo sapiens; for CC50: read-out: Log10 LC50 (converted)
# [17] = system: six CNS cancer cell line (SF-268, SF-295, SF-539, SNB-19, SNB-75 and U251); test: in vitro anticancer activity, CNS panel; format: cell-based; settings: Homo sapiens; six CNS cancer cell lines, exposure at least 48 h; read-out: GI50, range over panel
# [18] = system: ACHN; test: SRB 48 h growth assay, Renal ACHN; format: cell-based, human
# [19] = system: OVCAR-8; test: SRB 48 h growth assay, Ovarian OVCAR-8; format: cell-based, human; settings: OVCAR-8, Ovarian; for GI50 / CC50: Homo sapiens; for CC50: read-out: Log10 LC50 (converted)
# [20] = system: A549/ATCC; test: SRB 48 h growth assay, Non-small Cell Lung A549/ATCC; format: cell-based, human; settings: for GI50 / CC50: Homo sapiens; for CC50: read-out: Log10 LC50 (converted)
# [21] = system: NCI-H522; test: SRB 48 h growth assay, Non-small Cell Lung NCI-H522; format: cell-based, human; settings: for GI50 / CC50: Homo sapiens; for CC50: read-out: Log10 LC50 (converted)
# [22] = system: six leukemia cancer cell lines (CCRF-CEM, HL-60, K-562, MOLT-4, SR and RPMI-8226); test: in vitro anticancer activity, leukemia panel; format: cell-based; settings: Homo sapiens, exposure at least 48 h, read-out: GI50, range over panel
# [23] = system: NCI-H226; test: SRB 48 h growth assay, Non-small Cell Lung NCI-H226; format: cell-based, human
# [24] = in vitro anticancer activity, non-small cell lung panel; format: cell-based; settings: Homo sapiens; nine non-small cell lung cancer cell lines, exposure at least 48 h; read-out: GI50, range over panel
# [25] = system: SK-OV-3; test: SRB 48 h growth assay, Ovarian SK-OV-3; format: cell-based, human; settings: SK-OV-3, Ovarian; for GI50 / CC50: Homo sapiens; for CC50: read-out: Log10 LC50 (converted)
# [26] = system: NCI/ADR-RES; test: SRB 48 h growth assay, Ovarian NCI/ADR-RES; format: cell-based, human; settings: for GI50 / CC50: Homo sapiens; for CC50: read-out: Log10 LC50 (converted)
# [27] = system: CCRF-CEM; test: SRB 48 h growth assay, Leukemia CCRF-CEM; format: cell-based, human; settings: for CC50 / GI50: Homo sapiens; for CC50: CCKF-CEM, read-out: Log10 LC50 (converted)
# [28] = read-out: Growth Inhibition GI50
# [29] = read-out: Log10 GI50 (converted)
# [30] = Homo sapiens, read-out: Growth Inhibition GI50
# [31] = Homo sapiens, read-out: Log10 GI50 (converted)
# [32] = Homo sapiens, read-out: Log10 LC50 (converted)
smiles,measurement,setting,value
"C#Cc1ccc(-n2c(/C=C/c3ccc4ccccc4n3)nc3ncccc3c2=O)cc1 [4t, (E)-3-(4-Ethynylphenyl)-2-(2-(quinolin-2-yl)vinyl)pyrido[2,3-d]pyrimidin-4(3H)-one]",GI50,[1],2410 to 32300 nM
same,GI50,[2]; [28],240 nM
same,GI50,[2]; [29],240 nM
same,CC50,[2],> 100000 nM
same,Log10 TGI50,[3],−5.88
same,GI50,[3]; [30],380 nM
same,GI50,[3]; [31],389 nM
same,GI50,[4]; [30],300 nM
same,GI50,[4]; [31],302 nM
same,CC50,[4]; [32],4790 nM
same,Log10 TGI50,[4],−6.06
same,GI50,[5]; [30],430 nM
same,GI50,[5]; [31],437 nM
same,CC50,[5]; [32],8710 nM
same,Log10 TGI50,[5],−5.66
same,GI50,[6]; [30],190 nM
same,GI50,[6]; [31],195 nM
same,GI50,[7]; [28],230 nM
same,GI50,[7]; [29],234 nM
same,CC50,[7],3470 nM
same,Log10 TGI50,[7],−6.05
same,Log10 TGI50,[8],−5.62
same,GI50,[8]; [30],700 nM
same,GI50,[8]; [31],708 nM
same,GI50,[9],2310 to 11400 nM
same,Log10 TGI50,[10],−5.92
same,GI50,[10]; [30],340 nM
same,GI50,[10]; [31],347 nM
same,CC50,[10]; [32],3890 nM
same,GI50,[11],3870 to 4100 nM
same,GI50,[12]; [28],340 nM
same,GI50,[12]; [29],339 nM
same,CC50,[12],> 100000 nM
same,Log10 TGI50,[12],−5.76
same,Log10 TGI50,[13],−5.87
same,GI50,[13]; [28],350 nM
same,GI50,[13]; [29],355 nM
same,CC50,[13],5500 nM
same,Log10 TGI50,[14],−5.99
same,GI50,[14]; [30],320 nM
same,GI50,[14]; [31],324 nM
same,Log10 TGI50,[15],−6.18
same,GI50,[15]; [30],260 nM
same,GI50,[15]; [31],263 nM
same,GI50,[16]; [28],720 nM
same,GI50,[16]; [29],724 nM
same,CC50,[16],> 100000 nM
same,GI50,[17],940 to 5240 nM
same,Log10 TGI50,[18],−5.89
same,GI50,[18]; [30],320 nM
same,GI50,[18]; [31],324 nM
same,GI50,[19]; [28],340 nM
same,GI50,[19]; [29],347 nM
same,CC50,[19],> 100000 nM
same,Log10 TGI50,[20],−5.74
same,GI50,[20]; [28],350 nM
same,GI50,[20]; [29],355 nM
same,CC50,[20],> 100000 nM
same,Log10 TGI50,[21],−6.10
same,GI50,[21]; [28],270 nM
same,GI50,[21]; [29],269 nM
same,CC50,[21],4900 nM
same,GI50,[22],3200 to 7350 nM
same,Log10 TGI50,[23],−6.15
same,GI50,[23]; [30],250 nM
same,GI50,[23]; [31],251 nM
same,LC50,[23]; [32],5890 nM
same,GI50,[24],1800 to 5660 nM
same,GI50,[25]; [28],320 nM
same,GI50,[25]; [29],324 nM
same,CC50,[25],> 100000 nM
same,Log10 TGI50,[25],−6.03
same,Log10 TGI50,[26],−5.75
same,GI50,[26]; [28],380 nM
same,GI50,[26]; [29],380 nM
same,CC50,[26],> 100000 nM
same,CC50,[27],> 100000 nM
same,GI50,[27]; [28],260 nM
same,GI50,[27]; [29],263 nM
"C#Cc1ccc(-n2c(/C=C/c3ccc4ccccc4c3)nc3ncccc3c2=O)cc1 [4s, (E)-3-(4-Ethynylphenyl)-2-(2-(naphthalen-2-yl)vinyl)pyrido[2,3-d]pyrimidin-4(3H)-one]",GI50,[1],300 to 400 nM
same,Log10 TGI50,[2],>−4.00
same,GI50,[2]; [28],7620 nM
same,GI50,[2]; [29],7590 nM
same,CC50,[2],> 100000 nM
same,Log10 TGI50,[3],>−4.00
same,GI50,[3]; [30],4080 nM
same,GI50,[3]; [31],4070 nM
same,CC50,[3]; [32],> 100000 nM
same,GI50,[4]; [30],2040 nM
same,GI50,[4]; [31],2040 nM
same,GI50,[5]; [30],2110 nM
same,GI50,[5]; [31],2090 nM
same,GI50,[6]; [30],2060 nM
same,GI50,[6]; [31],2040 nM
same,CC50,[6]; [32],> 100000 nM
same,Log10 TGI50,[6],>−4.00
same,GI50,[7]; [28],960 nM
same,GI50,[7]; [29],955 nM
same,CC50,[7],7760 nM
same,Log10 TGI50,[7],−5.11
same,Log10 TGI50,[8],>−4.00
same,GI50,[8]; [30],6390 nM
same,GI50,[8]; [31],6460 nM
same,LC50,[8]; [32],> 100000 nM
same,GI50,[9],230 to 350 nM
same,GI50,[10]; [30],2220 nM
same,GI50,[10]; [31],2240 nM
same,GI50,[11],280 to 340 nM
same,GI50,[12]; [28],2350 nM
same,GI50,[12]; [29],2340 nM
same,CC50,[12],> 100000 nM
same,Log10 TGI50,[12],>−4.00
same,Log10 TGI50,[13],−5.26
same,GI50,[13]; [28],1980 nM
same,GI50,[13]; [29],2000 nM
same,CC50,[13],5500 nM
same,Log10 TGI50,[14],−5.51
same,GI50,[14]; [30],510 nM
same,GI50,[14]; [31],513 nM
same,CC50,[14]; [32],3090 nM
same,Log10 TGI50,[15],−5.36
same,GI50,[15]; [30],2070 nM
same,GI50,[15]; [31],2090 nM
same,CC50,[15]; [32],4370 nM
same,GI50,[16]; [28],2950 nM
same,CC50,[16],> 100000 nM
same,Log10 TGI50,[16],>−4.00
same,GI50,[17],200 to 720 nM
same,Log10 TGI50,[18],>−4.00
same,GI50,[18]; [30],2570 nM
same,GI50,[18]; [31],2570 nM
same,CC50,[18]; [32],> 100000 nM
same,GI50,[19]; [28],3050 nM
same,GI50,[19]; [29],3020 nM
same,CC50,[19],> 100000 nM
same,Log10 TGI50,[19],>−4.00
same,Log10 TGI50,[20],>−4.00
same,GI50,[20]; [28],2730 nM
same,GI50,[20]; [29],2750 nM
same,CC50,[20],> 100000 nM
same,Log10 TGI50,[21],>−4.00
same,GI50,[21]; [28],5110 nM
same,GI50,[21]; [29],5130 nM
same,CC50,[21],> 100000 nM
same,GI50,[22],260 to 450 nM
same,GI50,[23]; [30],2330 nM
same,GI50,[23]; [31],2340 nM
same,GI50,[24],180 to 700 nM
same,GI50,[25]; [28],7550 nM
same,GI50,[25]; [29],7590 nM
same,CC50,[25],> 100000 nM
same,Log10 TGI50,[25],>−4.00
same,Log10 TGI50,[26],>−4.00
same,GI50,[26]; [28],3290 nM
same,GI50,[26]; [29],3310 nM
same,CC50,[26],> 100000 nM
same,Log10 TGI50,[27],>−4.00
same,CC50,[27],> 100000 nM
same,GI50,[27]; [28],1530 nM
same,GI50,[27]; [29],1510 nM
